Measurements taken from patent US4510136A (priority 1983, dated 1985).
Structures can show the parent of a compound that is named as a salt.

Legend:
Assay type in all cases: in vivo
Cercospora arachidicola = experiment: Peanut early leafspot control on sprayed peanut seedlings (Example 84); settings: 100 ppm spray, day before inoculation; for pest or weed control at 100 ppm: Mycosphaerella arachidis, 360 h, read-out: % Control Peanut Easly Leafspot
Procedure: These suspensions were sprayed to the point of run-off on peanut seedlings. The following day, the plants were inoculated with a spore suspension of Cercospora arachidicola, causal agent of peanut early leafspot, and incubated in a saturated humidity chamber at 27° for 24 hours and then in a growth room for an additional 14 days, when disease ratings were made. Treated plants from successful treatments had few or no leafspots while the untreated plants had numerous leafspots.

Helminthosporium maydis = experiment: Southern corn leaf blight control on sprayed corn seedlings (Example 83); settings: 100 ppm spray, day before inoculation; for pest or weed control at 100 ppm: Bipolaris maydis, 192 h
Procedure: The compounds of the previous examples were again dissolved in acetone in an amount equal to 6% of the final volume and then suspended at a concentration of 100 ppm in purified water containing 250 ppm of the surfactant TREM 014 (polyhydric alcohol esters). These suspensions were sprayed to the point of run-off on corn seedlings. The following day, the plants were inoculated with a spore suspension of Helminthosporium maydis, causal agent of southern corn leaf blight, and incubated in a saturated humidity chamber at 20° for 24 hours and then in a growth room for an additional 7 days, when disease ratings were made. Treated plants from successful treatments had few or no lesions while the untreated plants had numerous lesions on each leaf. Phytotoxicity expressed as growth reduction was observed on some of the plants in association with disease control.

Rhizoctonia solani = experiment: Rice sheath blight control on sprayed rice seedlings (Example 87); settings: 100 ppm spray, day before inoculation; for pest or weed control at 100 ppm: Rhizoctonia solani, 168 h
Procedure: The compounds of the previous examples were again dissolved in acetone in an amount equal to 6% of the final volume and then suspended at a concentration of 100 ppm in purified water containing 250 ppm of the surfactant TREM 014 (polyhydric alcohol esters). This suspension was sprayed to the point of run-off on rice seedlings. The following day, the plants were inoculated with a mixture of bran and the mycelium of Rhizoctonia solani, causal agent of sheath blight of rice, and incubated in a growth room for 7 days. Disease ratings were then made. Treated plants from successful treatments had little sheath blight in contrast to untreated plants which were covered with sheath blight.

[1] = test system: Puccinia recondita var. tritici; experiment: Wheat leaf rust control on sprayed wheat seedlings (Example 79); settings: 100 ppm spray, day before inoculation; for pest or weed control at 100 ppm: Puccinia recondita, 168 h
Procedure: The compounds of this invention were dissolved in acetone in an amount equal to 6% of the final volume and then suspended at a concentration of 100 ppm in purified water containing 250 ppm of the surfactant TREM 014 (polyhydric alcohol esters). These suspensions were sprayed to the point of run-off on wheat seedlings. The following day, the plants were inoculated with a spore suspension of Puccinia recondita var. tritici, causal agent of wheat leaf rust, and incubated in a saturated humidity chamber at 20° for 24 hours and then in a growth room for an additional 7 days, when disease ratings were made. Treated plants from successful treatments had few or no rust pustules while the untreated plants had numerous rust pustules on each leaf.

Phytophthora infestans = experiment: whole plant or invertebrate; settings: for % Control of Tomato Late Blight: 100 ppm spray, day before inoculation; for pest or weed control at 100 ppm: Phytophthora infestans, in Solanum lycopersicum, 168 h, read-out: % Control of Tomato Late Blight, 100 ppm spray, day before inoculation
Pyricularia oryzae = experiment: whole plant or invertebrate; settings: for % Control of Rice Blast: 100 ppm spray, day before inoculation; for pest or weed control at 100 ppm: Pyricularia oryzae, 168 h, read-out: % Control of Rice Blast, 100 ppm spray, day before inoculation
Erysiphe cichoracearum = experiment: Cucumber powdery mildew control on sprayed cucumber seedlings (Example 80); settings: 100 ppm spray, day before inoculation; for pest or weed control at 100 ppm: Golovinomyces cichoracearum, 168 h
Procedure: These suspensions were sprayed to the point of run-off, on cucumber seedlings. The following day, the plants were inoculated with a spore suspension of the fungus Erysiphe cichoracearum, causal agent of cucumber powdery mildew, and incubated in a growth room for 7 days. Disease ratings were then made. Treated plants from successful treatments had little or no powdery mildew in contrast to untreated plants which were covered with powdery mildew. Phytotoxicity in the form of growth reduction or hormonal effects was observed on some of the plants in association with disease control.

Venturia inaequalis = experiment: Apple scab control on sprayed apple seedlings (Example 82); settings: 100 ppm spray, day before inoculation; for pest or weed control at 100 ppm: Venturia inaequalis
Procedure: These suspensions were sprayed to the point of run-off on apple seedlings. The following day, the plants were inoculated with a spore suspension of the fungus Venturia inaequalis, causal agent of apple scab, and incubated in a saturated humidity chamber at 20° for 24 hours and then in a growth room for an additional 10-12 days. Treated plants from successful treatments had fewer apple scab lesions when compared to untreated plants which were covered with scab lesions. Phytotoxicity expressed as growth reduction was observed on some of the plants in association with disease control.

Compound	% Control Peanut Easly Leafspot (Cercospora arachidicola)	% Control of Southern Corn Leaf Blight (Helminthosporium maydis)	% Control of Rice Sheath Blight (Rhizoctonia solani)	% Control Wheat Rust [1]	% Control of Tomato Late Blight (Phytophthora infestans)	% Control of Rice Blast (Pyricularia oryzae)	% Control Cucumber Powdery Mildew (Erysiphe cichoracearum)	% Control Apple Scab (Venturia inaequalis)	pest or weed control at 100 ppm (Cercospora arachidicola)	pest or weed control at 100 ppm (Helminthosporium maydis)	pest or weed control at 100 ppm (Venturia inaequalis)	pest or weed control at 100 ppm (Rhizoctonia solani)	pest or weed control at 100 ppm [1]	pest or weed control at 100 ppm (Phytophthora infestans)	pest or weed control at 100 ppm (Erysiphe cichoracearum)	pest or weed control at 100 ppm (Pyricularia oryzae)
2:1 complex of [bis(4-Fluorophenyl)]methyl(1H-1,2,4-triazol-1-ylmethyl)silane and Curpic Chloride	100%	0%	0%	100%	40%	100%	100%	–	–	–	–	–	–	–	–	–
C[Si](C)(Cn1cncn1)c1ccc(-c2ccccc2)cc1.[Cl][Cu] [1:1 complex of (1,1'-Biphenyl-4-yl)dimethyl(1H-1,2,4-triazol-1-ylmethyl)silane and Cuprous Chloride]	100%	100%	90%	0%	100%	100%	100%	100%	–	–	–	–	–	–	–	–
C[Si](Cn1cncn1)(c1ccc(Cl)cc1)c1ccccc1Cl (stereo not drawn) [2-Chlorophenyl(4-chlorophenyl)methyl(1H-1,2,4-triazol-1-ylmethyl)silane]	–	–	–	–	–	–	–	–	90%	60%	90%	70%	100%	0%	100%	–
C[Si](Cn1cncn1)(c1ccccc1)c1ccccc1Cl (stereo not drawn) [2-Chlorophenyl(methyl)phenyl(1H-1,2,4-triazol-1-ylmethyl)silane]	–	–	–	–	–	–	–	–	100%	100%	90%	90%	80%	0%	100%	100%
C[Si](Cn1cncn1)(c1ccccc1)c1ccc(Br)cc1 (stereo not drawn) [4-Bromophenyl(methyl)phenyl(1H-1,2,4-triazol-1-ylmethyl)silane]	–	–	–	–	–	–	–	–	100%	80%	100%	90%	0%	0%	100%	80%
C[Si](C)(Cn1cncn1)c1ccccc1-c1ccccc1 [(1,1'-Biphenyl-2-yl)dimethyl(1H-1,2,4-triazol-1-ylmethyl)silane]	–	–	–	–	–	–	–	–	100%	90%	60%	0%	0%	50%	90%	90%
C[Si](C)(Cn1cncn1)c1cccc(-c2ccccc2)c1 [(1,1'-Biphenyl-3-yl)dimethyl(1H-1,2,4-triazol-1-ylmethyl)silane]	–	–	–	–	–	–	–	–	90%	100%	50%	0%	80%	0%	0%	0%
C[Si](Cn1cncn1)(c1ccc(F)cc1)c1ccc(-c2ccccc2)cc1 (stereo not drawn) [(1,1'-Biphenyl-4-yl)(4-fluorophenyl)methyl(1H-1,2,4-triazol-1-ylmethyl)silane]	–	–	–	–	–	–	–	–	100%	80%	100%	0%	100%	0%	100%	–
C[Si](C)(Cn1cncn1)c1ccc(-c2ccccc2)cc1.[Cl][Cu][Cl] [(1,1'-Biphenyl-4-yl)dimethyl(1H-1,2,4-triazol-1-ylmethyl)silane, 1:1 complex with cupric chloride]	100%	80%	0%	100%	90%	100%	100%	100%	–	–	–	–	–	–	–	–
C[Si](C)(Cn1cncn1)c1ccc(-c2ccccc2)cc1.O=S(=O)([O-])[O-].[Mn+2] [(1,1'-Biphenyl-4-yl)dimethyl(1H-1,2,4-triazol-1-ylmethyl)silane, 1:1 complex with manganous sulfate]	100%	100%	0%	90%	0%	0%	90%	100%	–	–	–	–	–	–	–	–
C[Si](C)(Cn1cncn1)c1ccc(-c2ccccc2)cc1 [(1,1'-Biphenyl-4-yl)dimethyl(1H--1,2,4-triazol-1-ylmethyl)si] [4-Dodecylbenzenesulfonate Salt of (1,1'-Biphenyl-4-yl)dimethyl(1H-1,2,4-triazol-1-ylmethyl)silane]	–	100%	–	–	–	–	–	–	–	–	–	–	–	–	–	–
Cc1ncnn1C[Si](C)(C)c1ccc(-c2ccccc2)cc1 [(1,1'-Biphenyl-4-yl)dimethyl(5-methyl-1H-1,2,4-triazol-1-ylmethyl)silane]	–	–	–	–	–	–	–	–	100%	80%	100%	0%	100%	80%	100%	0%
CC(C)(C)O[Si](Cn1cncn1)(c1ccc(F)cc1)c1ccc(F)cc1 [(1,1-Dimethylethoxy)[bis(4-fluorophenyl)](1H-1,2,4-triazol-1-ylmethyl)silane]	–	–	–	–	–	–	–	–	–	0%	–	–	–	–	100%	–
CC(C)O[Si](C)(Cn1cncn1)c1ccc(F)cc1 (stereo not drawn) [(4-Fluorophenyl)methyl(2-propoxy)(1H-1,2,4-triazol-1-ylmethyl)silane]	–	–	–	–	–	–	–	–	–	0%	–	–	–	–	100%	–
CC(C)O[Si](Cn1cncn1)(OC(C)C)c1ccccc1 [Phenylbis(2-propoxy)(1H-1,2,4-triazol-1-ylmethyl)silane]	–	–	–	–	–	–	–	–	0%	0%	0%	0%	0%	0%	100%	–
C[Si](Cn1cncn1)(c1ccc(F)cc1)c1ccc(F)cc1.[Cl][Cu] [[bis(4-Fluorophenyl)]methyl(1H-1,2,4-triazol-1-ylmethyl)silane, 1:1 complex with cuprous chloride]	100%	0%	90%	90%	0%	90%	100%	–	–	–	–	–	–	–	–	–
CC(n1cncn1)[Si](C)(c1ccc(F)cc1)c1ccc(F)cc1 (stereo not drawn) [bis(4-Fluorophenyl)methyl[1-(1H-1,2,4-triazol-1-yl)ethyl]silane]	–	–	–	–	–	–	–	–	100%	–	100%	80%	100%	0%	100%	0%
